Article PMC10458458, “Characterization of Anticancer Effects of the Analogs of DJ4, a Novel Selective Inhibitor of ROCK and MRCK Kinases” (Pharmaceuticals, 2023)

Experiments:
HCC-2998 = assay: NCI-60 screen (SRB); format: cell-based, human; conditions: for percent cell growth: HCC-2998 (Colon Cancer), negative = cell death vs time zero
Source text: (§1) The selected active compounds were screened at NCI, as a part of In Vitro Cell Line Screening Project (IVCLSP), for their effect on cell growth in 60 different cancer cell lines. The 60 human cancer cell line panel included leukemia, melanoma, non-small cell lung cancer, colon, central nervous system (CNS), ovarian, renal, prostate, and breast cancer cell lines. The detailed procedure and applications of NCI-60 cell line screening can be found at https://dtp.cancer.gov/discovery_development/nci-60/default.htm (accessed on 9 January 2023). Briefly, cells were plated in 96-well plates and incubated for 24 h. One set of cells was fixed with trichloroacetic acid at time 0 h (Tz), and SRB (sulphorhodamine B) assays were performed to quantify the cells. The remaining set of cells were treated with 10 µM single concentration of each compound and incubated for 48 h (Te) after which the cells were fixed, and the SRB assays were performed. Data are presented as percent growth relative to the control as 100% according to the following calculations:
(§2) When Te >/= Tz. Growth(%)=Te−Tz/C−Tz∗100 and when Te < Tz. (1) Growth(%)=Te−Tz/Tz∗100
(§3) Values between 0–100 indicate cell growth, zero (0) indicates no cell growth, values < 0 indicate cell death.

HS 578T = assay: NCI-60 screen (SRB); format: cell-based, human; conditions: HS 578T (Breast Cancer), 10 µM, 48 h; negative = cell death vs time zero
Source text: as §1, §2, §3

TK-10 = assay: NCI-60 screen (SRB); format: cell-based, human; conditions: TK-10 (Renal Cancer), 10 µM, 48 h; negative = cell death vs time zero
Source text: as §1, §2, §3

MRCKα = molecular target: T1, MRCKα (Homo sapiens, UniProt Q5VT25); assay: Cell-free biochemical kinase activity assay (pMYPT1 immunoblot)
T1 construct: purchased Invitrogen
Procedure: (§4) Cell-free biochemical kinase inhibitory activity of these compounds was evaluated at 1 µM concentration using the previously described ROCK1 kinase activity assay. Among the 27 analogs, we identified four analogs (DJ110, DJ-Allyl, DJE4, and DJ-Morpholine) with >50% inhibition of MYPT1 phosphorylation (Supplementary Figure S1). These four compounds were selected for further evaluation at 1 µM and 0.1 µM for their in vitro inhibitory activity against ROCK1, ROCK2, MRCKα, and MRCKβ kinases.
(§5) Cell-free biochemical kinase activity was assayed using published procedures. Briefly, recombinant ROCK1 (9.48 nM) or ROCK2 (8.26 nM; Invitrogen, Waltham, MA, USA) was incubated in the presence of 0.1 and 1 µM concentrations of DJ4 analogs or DMSO in ROCK-assay buffer at room temperature (RT) for 10 min. MRCKα and MRCKβ (2 ng/µL; Invitrogen) assays were performed in the assay buffer recommended by the manufacturer. Recombinant MYPT1 (20 ng/µL; Millipore) and ATP (5 µM) were added to initiate the reaction. The reaction was incubated at 30 °C for 20 min. Western blot analysis of these samples for phosphorylation of MYPT1 was performed as per the method mentioned in our earlier publication. Briefly, an equal amount of sample was loaded on Bis-Tris gel (Novex, Life Technologies, Carlsbad, CA, USA), proteins were electrophoresed and transferred to PVDF membranes. The blots were probed with anti-pMYPT1 (Thr696) or anti-MYPT1 (Millipore) antibodies.

MRCKβ = molecular target: T2, MRCKβ (Homo sapiens, UniProt Q9Y5S2); assay: as above; conditions: 1 µM
T2 construct: purchased Invitrogen
Procedure: as §4, §5

[1] = test system: MDA-MB-231 breast cancer cells; assay: Cell migration (scratch/wound healing) assay; format: cell-based, human; conditions: MDA-MB-231, 2.5 µM for 24 h, then 9 h migration in compound-free medium; vehicle = 100%
Procedure: Lastly, we examined the effects of these four analogs on migration of MDA-MB-231 breast cancer cells. Scratch assays were performed on cells treated with the various analogs for 24 h and then allowed to migrate into the scratched area for 9 h in compound-free media. […] Due to limited solubility, DJ-Morpholine was not tested for its effect on cell migration.
Figure 9 DJ4 analogs inhibit migration of MDA-MB-231 breast cancer cells. (A) MDA-MB-231 cells were treated with 2.5 µM concentration of DJ4 analogs for 24 h. At the end of the treatment period, uniform scratches were made across the monolayer of cells. The cells were allowed to migrate in the scratched area for 9 h in a compound-free medium. The cells were stained with calcein (green) and propidium iodide (red) to study live and dead cell populations in the scratched area. (B) The distance migrated by the treated cells was normalized to vehicle control treated cells. Statistical significance was determined by one-way ANOVA followed by Dunnett’s multiple comparison test. The error bars indicate SEM from triplicates of the experiment. *** p < 0.001. TEXT PRINTED IN THE PICTURE: (B) DMSO: % Migration: 100 | (B) DJ4: % Migration: 32 *** | (B) DJ110: % Migration: 28 *** | (B) DJ Allyl: % Migration: 36 *** | (B) DJE4: % Migration: 48 ***
Migration (scratch/wound healing) assays were performed using published procedures. Briefly, MDA-MB-231 cells were grown to confluence, and cells were treated with DMSO (vehicle control), DJ4, and its active analogs at 2.5 µM concentration for 24 h. At the end of the treatment period, uniform scratches were made in the monolayer of cells. The cells were allowed to migrate for 9 h in a compound-free medium. Light microscopic images were obtained at 0 h and 9 h after creating scratches. The width of the scratches was measured by using AxioVision software (AxioVision Inc., Carl Zeiss, Jena, Germany). The percentage of migration in each treatment at 9 h was calculated in comparison to 0 h readings. Furthermore, the percent migration in treatment groups was normalized to vehicle control (considering 100% migration). The experiment was performed in triplicate. Viability of the cells at the migration area was studied to confirm that the anti-migration effect of the analogs at the tested concentration and duration is independent of cell death. At the end of the migration period, cells were stained with calcein (Invitrogen, Waltham, MA, USA) and propidium iodide (Invitrogen, Waltham, MA, USA) dyes, as per the manufacturer’s protocol, which stain the live and dead cells, respectively.

ROCK1 = ROCK1 (Homo sapiens, UniProt Q13464); assay: Cell-free biochemical kinase activity assay (pMYPT1 immunoblot); parameters: purchased Invitrogen; conditions: for inhibition at 1 µM: cell-free screen of 27 analogs, read-out: inhibition of MYPT1 phosphorylation
Procedure: as §4, §5
Figure S1. Screening of analogs in the in vitro kinase activity assay to identify […]
Kinase inhibitory activity of the 27 compounds was evaluated by in vitro cell-free biochemical kinase activity assay. The compounds (1 µM) were incubated with recombinant ROCK1 (9.48nM), recombinant MYPT1 (a kinase substrate, 84 nM) and ATP (25 µM). Phosphorylation status of the substrate (pMYPT1) was analyzed to study the […]

ROCK2 = ROCK2 (Homo sapiens, UniProt O75116); assay: as above; parameters: purchased Invitrogen
Procedure: as §4, §5

Sequence of ROCK2 (O75116 whole entry): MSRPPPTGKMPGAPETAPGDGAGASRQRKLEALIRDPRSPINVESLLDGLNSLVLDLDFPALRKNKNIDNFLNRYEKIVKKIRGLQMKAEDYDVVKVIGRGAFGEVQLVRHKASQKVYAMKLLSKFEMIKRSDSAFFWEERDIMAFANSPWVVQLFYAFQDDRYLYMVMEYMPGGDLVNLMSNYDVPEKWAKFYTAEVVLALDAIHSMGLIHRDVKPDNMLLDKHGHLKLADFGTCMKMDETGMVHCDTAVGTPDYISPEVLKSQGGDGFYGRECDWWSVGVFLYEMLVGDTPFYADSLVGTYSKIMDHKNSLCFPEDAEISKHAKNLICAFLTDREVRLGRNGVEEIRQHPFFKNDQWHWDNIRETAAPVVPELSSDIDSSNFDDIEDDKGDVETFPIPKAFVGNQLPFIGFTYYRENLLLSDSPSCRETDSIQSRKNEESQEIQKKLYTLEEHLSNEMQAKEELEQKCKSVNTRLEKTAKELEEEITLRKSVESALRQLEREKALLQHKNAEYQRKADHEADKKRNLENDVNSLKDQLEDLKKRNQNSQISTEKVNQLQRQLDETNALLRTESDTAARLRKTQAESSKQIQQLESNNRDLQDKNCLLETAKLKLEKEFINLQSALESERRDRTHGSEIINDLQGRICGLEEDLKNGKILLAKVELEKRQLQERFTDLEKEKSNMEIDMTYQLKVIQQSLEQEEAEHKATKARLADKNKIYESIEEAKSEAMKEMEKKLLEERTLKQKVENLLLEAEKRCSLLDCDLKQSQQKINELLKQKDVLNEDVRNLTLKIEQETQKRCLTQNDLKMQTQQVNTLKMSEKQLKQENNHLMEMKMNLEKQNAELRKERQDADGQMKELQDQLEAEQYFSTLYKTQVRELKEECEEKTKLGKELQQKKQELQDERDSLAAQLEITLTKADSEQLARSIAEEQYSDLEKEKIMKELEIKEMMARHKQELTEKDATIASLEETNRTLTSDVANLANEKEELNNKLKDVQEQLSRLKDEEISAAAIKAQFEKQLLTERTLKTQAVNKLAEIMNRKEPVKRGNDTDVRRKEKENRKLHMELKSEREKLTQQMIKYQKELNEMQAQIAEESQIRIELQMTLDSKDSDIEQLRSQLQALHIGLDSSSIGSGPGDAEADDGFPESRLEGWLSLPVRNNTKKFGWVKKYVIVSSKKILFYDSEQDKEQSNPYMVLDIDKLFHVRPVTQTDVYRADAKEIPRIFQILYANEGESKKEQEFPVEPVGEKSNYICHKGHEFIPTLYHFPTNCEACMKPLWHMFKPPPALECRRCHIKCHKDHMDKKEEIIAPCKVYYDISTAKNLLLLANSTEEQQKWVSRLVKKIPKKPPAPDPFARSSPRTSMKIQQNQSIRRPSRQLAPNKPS
T1 sequence (Q5VT25 whole entry): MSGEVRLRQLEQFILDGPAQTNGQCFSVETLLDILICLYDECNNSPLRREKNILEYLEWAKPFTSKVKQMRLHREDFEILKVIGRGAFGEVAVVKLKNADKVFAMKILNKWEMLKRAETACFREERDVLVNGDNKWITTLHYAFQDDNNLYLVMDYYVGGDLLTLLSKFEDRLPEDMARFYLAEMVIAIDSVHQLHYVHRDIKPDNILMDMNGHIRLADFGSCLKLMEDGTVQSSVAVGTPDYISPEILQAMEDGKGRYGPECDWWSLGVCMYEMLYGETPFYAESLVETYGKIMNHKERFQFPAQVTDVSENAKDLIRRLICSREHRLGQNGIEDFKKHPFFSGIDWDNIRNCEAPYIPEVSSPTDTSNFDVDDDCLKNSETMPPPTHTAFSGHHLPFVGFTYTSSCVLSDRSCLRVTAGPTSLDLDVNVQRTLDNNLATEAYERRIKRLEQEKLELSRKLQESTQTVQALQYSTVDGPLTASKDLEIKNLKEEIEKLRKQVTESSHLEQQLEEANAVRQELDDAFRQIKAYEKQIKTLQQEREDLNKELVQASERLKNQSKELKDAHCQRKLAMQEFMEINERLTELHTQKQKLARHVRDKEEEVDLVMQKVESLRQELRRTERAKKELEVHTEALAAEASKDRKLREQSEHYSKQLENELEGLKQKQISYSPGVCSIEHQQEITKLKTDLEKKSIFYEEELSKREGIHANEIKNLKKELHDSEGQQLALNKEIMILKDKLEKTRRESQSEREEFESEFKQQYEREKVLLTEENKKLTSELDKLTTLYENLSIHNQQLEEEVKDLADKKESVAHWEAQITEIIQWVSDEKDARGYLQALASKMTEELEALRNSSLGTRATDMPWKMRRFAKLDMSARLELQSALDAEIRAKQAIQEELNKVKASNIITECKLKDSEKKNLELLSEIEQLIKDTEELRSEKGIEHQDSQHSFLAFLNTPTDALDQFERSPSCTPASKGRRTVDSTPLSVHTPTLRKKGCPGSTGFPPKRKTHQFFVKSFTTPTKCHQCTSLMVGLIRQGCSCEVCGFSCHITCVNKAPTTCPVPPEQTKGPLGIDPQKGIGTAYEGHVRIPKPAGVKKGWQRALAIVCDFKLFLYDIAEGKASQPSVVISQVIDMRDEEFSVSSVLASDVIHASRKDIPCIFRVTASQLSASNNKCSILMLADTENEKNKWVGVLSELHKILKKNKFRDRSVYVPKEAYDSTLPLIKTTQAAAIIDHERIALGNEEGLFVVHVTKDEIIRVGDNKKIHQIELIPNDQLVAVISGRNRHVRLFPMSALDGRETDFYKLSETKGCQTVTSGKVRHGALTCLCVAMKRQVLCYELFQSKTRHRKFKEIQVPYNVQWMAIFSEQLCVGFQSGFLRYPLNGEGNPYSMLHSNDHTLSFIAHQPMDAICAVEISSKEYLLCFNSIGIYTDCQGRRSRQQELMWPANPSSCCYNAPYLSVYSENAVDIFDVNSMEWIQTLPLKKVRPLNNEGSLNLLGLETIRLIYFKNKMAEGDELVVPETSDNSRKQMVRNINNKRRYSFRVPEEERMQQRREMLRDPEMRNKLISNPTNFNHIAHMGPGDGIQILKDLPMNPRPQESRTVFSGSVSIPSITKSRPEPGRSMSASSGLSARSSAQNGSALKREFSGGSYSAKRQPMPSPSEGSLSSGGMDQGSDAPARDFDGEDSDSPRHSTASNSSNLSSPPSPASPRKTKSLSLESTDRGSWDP
T2 sequence (Q9Y5S2 whole entry): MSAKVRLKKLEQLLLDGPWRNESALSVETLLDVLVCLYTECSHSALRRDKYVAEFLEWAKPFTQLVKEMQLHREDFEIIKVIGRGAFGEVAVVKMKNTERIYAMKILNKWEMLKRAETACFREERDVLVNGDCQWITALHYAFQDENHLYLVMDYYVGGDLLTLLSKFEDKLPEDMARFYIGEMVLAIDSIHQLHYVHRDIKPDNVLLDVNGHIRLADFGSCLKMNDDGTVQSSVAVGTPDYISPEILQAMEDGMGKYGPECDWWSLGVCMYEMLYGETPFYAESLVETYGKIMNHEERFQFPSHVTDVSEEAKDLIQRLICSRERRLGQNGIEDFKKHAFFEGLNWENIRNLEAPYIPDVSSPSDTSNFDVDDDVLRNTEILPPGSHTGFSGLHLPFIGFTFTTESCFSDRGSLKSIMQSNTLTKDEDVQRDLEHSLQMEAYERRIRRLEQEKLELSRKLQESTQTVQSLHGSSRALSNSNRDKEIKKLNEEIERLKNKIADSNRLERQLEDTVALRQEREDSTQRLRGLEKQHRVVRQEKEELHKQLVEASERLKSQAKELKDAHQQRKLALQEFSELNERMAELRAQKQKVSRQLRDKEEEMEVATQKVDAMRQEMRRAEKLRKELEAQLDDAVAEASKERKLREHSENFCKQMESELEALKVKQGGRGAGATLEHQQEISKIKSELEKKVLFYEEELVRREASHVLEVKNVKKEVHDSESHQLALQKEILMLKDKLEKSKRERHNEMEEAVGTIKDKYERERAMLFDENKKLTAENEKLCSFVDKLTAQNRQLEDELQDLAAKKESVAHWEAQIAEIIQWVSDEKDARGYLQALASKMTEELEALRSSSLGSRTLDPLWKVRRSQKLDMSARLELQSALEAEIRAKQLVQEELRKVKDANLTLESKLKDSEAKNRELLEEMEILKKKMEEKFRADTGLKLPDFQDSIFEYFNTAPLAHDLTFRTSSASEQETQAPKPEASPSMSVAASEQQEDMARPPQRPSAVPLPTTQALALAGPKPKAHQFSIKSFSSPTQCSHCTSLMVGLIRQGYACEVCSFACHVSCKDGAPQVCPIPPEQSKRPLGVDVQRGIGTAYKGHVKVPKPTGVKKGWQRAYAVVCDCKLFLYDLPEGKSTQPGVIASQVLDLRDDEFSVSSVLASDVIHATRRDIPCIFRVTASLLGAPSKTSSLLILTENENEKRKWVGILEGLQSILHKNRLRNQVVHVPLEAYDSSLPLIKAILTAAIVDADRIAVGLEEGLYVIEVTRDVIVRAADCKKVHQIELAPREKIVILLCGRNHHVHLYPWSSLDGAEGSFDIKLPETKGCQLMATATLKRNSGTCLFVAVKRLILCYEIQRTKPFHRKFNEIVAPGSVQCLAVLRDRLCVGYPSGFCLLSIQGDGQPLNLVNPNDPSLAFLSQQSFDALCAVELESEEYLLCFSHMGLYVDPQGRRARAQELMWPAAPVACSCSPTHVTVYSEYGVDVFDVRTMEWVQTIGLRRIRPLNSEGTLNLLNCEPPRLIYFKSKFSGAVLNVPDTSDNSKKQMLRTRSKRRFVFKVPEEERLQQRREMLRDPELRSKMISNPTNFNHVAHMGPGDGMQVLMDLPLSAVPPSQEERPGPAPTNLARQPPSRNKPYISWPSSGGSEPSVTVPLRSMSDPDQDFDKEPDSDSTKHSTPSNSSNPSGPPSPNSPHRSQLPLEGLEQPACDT

SMILES | percent cell growth (HCC-2998; 10 µM, 48 h) | percent cell growth (HS 578T) | percent cell growth (TK-10) | inhibition of kinase activity (qualitative immunoblot) (MRCKα; 0.1 µM) | inhibition of kinase activity (qualitative immunoblot) (MRCKα; 1 µM) | inhibition of kinase activity (qualitative immunoblot) (MRCKβ) | % Migration compared to control [1] | IC50 (HCC-2998; Homo sapiens, HCC-2998 colon cancer cells, NCI-60 screen) | inhibition of kinase activity (qualitative immunoblot) (ROCK1; ROCK1, 0.1 µM) | inhibition of kinase activity (qualitative immunoblot) (ROCK1; ROCK1, 1 µM) | inhibition of kinase activity (qualitative immunoblot) (ROCK2; ROCK2, 0.1 µM) | inhibition of kinase activity (qualitative immunoblot) (ROCK2; ROCK2, 1 µM) | inhibition at 1 µM (ROCK1; ROCK1, 1 µM) | increase in cell number (HCC-2998; HCC-2998 (colon), 10 µM, 48 h)
Cl.O=C1NC(=NCCc2ccccc2)SC1=Cc1c[nH]c2ncccc12 (mixture of isomers) [DJ4-HCl] | 66.2% | 8.8% | 18.8% |  |  |  |  |  |  |  |  |  |  | 
O=C1N/C(=N\CCc2ccccc2)S/C1=C/c1c[nH]c2ncccc12 [DJ4] | 53.9% | 8.8% | 34.2% | ineffective | significantly inhibit | significantly inhibit | 32% | > 10 µM | ineffective | significantly inhibit | ineffective | significantly inhibit |  | 
O=C1N/C(=N\Cc2ccccc2)S/C1=C/c1c[nH]c2ncccc12 [DJ110] |  |  |  | significantly inhibited | significantly inhibit | significantly inhibit | 28% |  | significantly inhibited | significantly inhibit | significantly inhibited | significantly inhibit | > 50% | 
C=CC/N=C1\NC(=O)/C(=C\c2c[nH]c3ncccc23)S1 [DJ-Allyl] | 44.6% | −15.0% | 1.7% |  | minimal inhibition | minimal inhibition | 36% |  |  | almost completely inhibited |  | almost completely inhibited | > 50% | ~ 40%
O=C1N/C(=N\CCN2CCOCC2)S/C1=C/c1c[nH]c2ncccc12 [DJ-Morpholine] |  |  |  |  | minimal inhibition | minimal inhibition |  |  |  | almost completely inhibited |  | almost completely inhibited | > 50% | 
CC/N=C1\NC(=O)/C(=C\c2c[nH]c3ncccc23)S1 [DJE4] | 10.2% | −15.1% | −3.8% |  | minimal inhibition | minimal inhibition | 48% |  |  | almost completely inhibited |  | almost completely inhibited | > 50% | 
